Reference: patent US20180289692A1, “TLR MODULATORS AND METHODS OF USE” (CELGENE CORPORATION, priority 2015, published 2018)
Where two headings read alike, the source gives them in different places. Oligonucleotides are written 5' to 3', each unit as a sugar letter and its base; * is a phosphorothioate linkage, no mark a phosphodiester; rarer units and linkages stand in square brackets, end groups in braces. Plain capitals give the bases only. d = 2'-deoxy (DNA)

Legend:
[1] = test system: human PBMCs; experiment: Cytokine production by human PBMCs treated with ODNs, MagPix Multi-Plex; assay type: cell-based; design: key to IL-6, IL-12: (↑) indicates a weak but detectable activity; (↑↑) and (↑↑↑) indicate different levels of moderate activities; (↑↑) and (↑↑↑) indicate different levels of moderate activities; (↑↑↑↑) indicates a strong activity; (−) indicates no detectable activity; details: for IFN-γ / IL-1β / IL-6 / IL-10 / IL-12p40 / IP10 / TNF-α: human PBMC, 24 hrs
Protocol: PBMC from 3 donors were isolated from Buffy Coat (Blood Center of NY). The cells were washed with PBS and re-suspended in RPMI-1640 Media with 5% Human AB Serum, 1% Pen/Strep and 2 mM L-glutamine. The cells were then plated in 96-well plates at 250,000 cells/well. […] After 24 hrs, the supernatant was harvested and tested for cytokine production using MagPix Multi-Plex Technology. The following cytokines were tested: IL-6, IL-10, IL-12p40, IFN-α, IFN-γ, IP-10, IL-1β and TNF-α.

[2] = test system: ulcerative colitis patients; details: clinical studies, subset of UC patients; cited from earlier work
[3] = test system: SMAD7 protein; experiment: SMAD7 protein levels in human pDCs by FACS; assay type: cell-based; details: 24 hrs or 48 h, any indicated concentration, no transfection
Protocol: PBMC from healthy donors were isolated from Buffy Coat blood (Blood Center of NY) by density-gradient centrifugation over Ficoll-Hypaque (Pharmacia Biotech). The cells were washed with PBS and re-suspended in RPMI-1640 Media with 10% inactivated fetal bovine serum, penicillin (100 U/ml) and streptomycin (100 μg/ml) and 2 mM L-glutamine (complete medium, Life Technologies). PBMC were treated with ODNs for indicated time periods at indicated concentrations, generally between 0.0001 μM and 10 μM, with CD40L plus anti-HisTag antibody, or with a vehicle control (endotoxin-free sterile water control). No transfection reagent was added with the ODNs.
SMAD7 protein levels were determined using standard FACS protocols. PBMCs were incubated on ice in the presence of Fc-Block (BD Pharmingen) for 20 minutes, washed, and incubated with antibodies specific for surface molecules or isotype-matched control mAbs. PECY-7-labeled anti-human CCR6 mAb, and PerCP-Cy5.5 labeled anti-human CD123 mAb were purchased from BD Biosciences. SMAD7 antibody was purchased from Biorbyt, Cambridge, UK. The stained cells were then subjected to FACS (FACSCanto, BD Biosciences) using the FACSDiva software. FACS analysis was performed using FlowJo software. Single, viable cells in the CCR6+CD123+ pDC gates were used for analysis of, e.g., SMAD7 protein levels.

[4] = target: T1, TLR7 (Homo sapiens, UniProt Q9NYK1); experiment: Inhibition of TLR7 (imiquimod)-induced IFNα and IP10 (CXCL10) in PBMCs; assay type: cell-based
T1 construct: endogenous in cells; host or cells: human PBMCs from healthy donors
T1 sequence (Q9NYK1 27-1049): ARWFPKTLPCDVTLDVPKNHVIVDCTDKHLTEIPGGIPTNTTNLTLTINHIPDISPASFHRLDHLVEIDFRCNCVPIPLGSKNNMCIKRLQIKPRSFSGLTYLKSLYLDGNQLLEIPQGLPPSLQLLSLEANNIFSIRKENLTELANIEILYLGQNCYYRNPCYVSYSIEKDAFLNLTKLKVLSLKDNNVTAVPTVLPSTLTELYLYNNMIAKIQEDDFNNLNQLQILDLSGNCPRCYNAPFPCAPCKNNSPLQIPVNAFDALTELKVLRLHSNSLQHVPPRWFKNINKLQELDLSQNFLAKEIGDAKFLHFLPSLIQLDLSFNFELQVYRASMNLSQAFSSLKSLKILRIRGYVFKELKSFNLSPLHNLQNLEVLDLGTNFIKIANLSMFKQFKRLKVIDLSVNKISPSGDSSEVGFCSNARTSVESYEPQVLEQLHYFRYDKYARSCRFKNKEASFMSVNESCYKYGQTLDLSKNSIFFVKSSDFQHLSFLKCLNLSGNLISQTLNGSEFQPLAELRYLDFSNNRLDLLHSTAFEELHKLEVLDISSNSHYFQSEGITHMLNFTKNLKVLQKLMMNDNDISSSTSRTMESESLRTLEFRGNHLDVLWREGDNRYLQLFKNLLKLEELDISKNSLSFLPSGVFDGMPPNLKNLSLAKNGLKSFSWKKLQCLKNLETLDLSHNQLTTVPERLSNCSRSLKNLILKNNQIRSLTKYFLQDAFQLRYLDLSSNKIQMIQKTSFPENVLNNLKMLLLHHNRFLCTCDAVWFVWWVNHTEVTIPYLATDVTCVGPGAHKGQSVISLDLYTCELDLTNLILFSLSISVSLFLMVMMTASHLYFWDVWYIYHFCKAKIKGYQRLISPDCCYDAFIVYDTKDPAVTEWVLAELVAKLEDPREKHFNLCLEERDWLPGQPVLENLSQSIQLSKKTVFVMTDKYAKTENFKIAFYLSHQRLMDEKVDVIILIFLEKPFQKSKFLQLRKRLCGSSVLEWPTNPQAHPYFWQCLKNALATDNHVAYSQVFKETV
Protocol: After 24 hours, the supernatant was harvested and tested for IFNα using MagPix Multi-Plex technology.

[5] = PBMC, relative strength, Table 6

With “ODN150: 5′-G*G*A*ACAGTTCGTCCAT*G*G*C-3′, PO except * = PS; antisense to p65 of NF-kB mRNA; tested clinically for ulcerative colitis (DNA dG*dG*dA*dAdCdAdGdTdTdCdGdTdCdCdAdT*dG*dG*dC)” the “IL-6, IL-12” value [1, 5] was “↑”, the “TNFα, IFNγ” value [1, 5] was “—/↑” and the “IFNα secretion from PBMCs” value ([1]; any tested concentration between 0.01 μM and 10 μM, FIG. 25) was “not found to induce”. It also gave an IFN-γ ([1]; high-dose ODN 10 μM) of 0.2 pg/mL, an IL-1β ([1]; high-dose ODN 10 μM) of 0.6 pg/mL and an IL-6 ([1]; high-dose ODN 10 μM) of 11.8 fold change. For the same substance, the IL-10 ([1]; high-dose ODN 10 μM) was 1.6 fold change, the IL-12p40 ([1]; high-dose ODN 10 μM) was 0 pg/mL and the IP10 ([1]; high-dose ODN 10 μM) was 8.1 fold change. For the same substance, the TNF-α ([1]; high-dose ODN 10 μM) was 2 fold change, the IFN-γ ([1]; low-dose ODN 0.1 μM) was 0.2 pg/mL and the IL-1β ([1]; low-dose ODN 0.1 μM) was 0.2 pg/mL. It also gave an IL-6 ([1]; low-dose ODN 0.1 μM) of 1.2 fold change, an IL-10 ([1]; low-dose ODN 0.1 μM) of 0.9 fold change and an IL-12p40 ([1]; low-dose ODN 0.1 μM) of 0 pg/mL. For the same substance, the IP10 ([1]; low-dose ODN 0.1 μM) was 1.5 fold change, the TNF-α ([1]; low-dose ODN 0.1 μM) was 1.2 fold change and the “clinical effect in ulcerative colitis” value [2] was “some moderate beneficial effects”. For the same substance, the “effect on SMAD7 protein levels” value [3] was “do not affect”, the IC50 ([4]; Imiquimod 5 μg/ml 24 hours, FIGS. 8B, 9A, read-out: IC50, TLR7-mediated IFNα induction) was > 10 µM and the IC50 ([4]; imiquimod, FIG. 9B, read-out: IC50, TLR7-mediated IP10 (CXCL10) induction) was > 10 µM.
